# Results reported in PubChem BioAssay AID2060619 (Molecular Pharmacology Branch, DTP, NCI, 2025).
# System: 323965-272-R-J2-PDC complex spheroid viability
# Test: Anticancer human tumor 323965-272-R-J2-PDC patient-derived pancreatic carcinoma cell line growth inhibition [CLK]
# Settings: for IC50: curve of first compound; for viability, T/C: stronger effect = lower value
# Summary of the method: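 Multi-cell-type spheroids combined patient-derived tumor cells with HUVEC endothelial cells and human mesenchymal stem cells. Paired agents were dosed in half-log steps down from about clinical Cmax, or from 10 microM where Cmax was unknown.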
# [1] = second compound 0.0316 µM, first compound 0.0316 µM
# [2] = second compound 0.0316 µM, first compound 0.1 µM
# [3] = second compound 0.0316 µM, first compound 0.316 µM
# [4] = second compound 0.0316 µM, first compound 1 µM
# [5] = second compound 0.0316 µM, first compound 3.16 µM
# [6] = second compound 0.0316 µM, first compound 10 µM
# [7] = second compound 0.1 µM, first compound 0.0316 µM
# [8] = second compound 0.1 µM, first compound 0.1 µM
# [9] = second compound 0.1 µM, first compound 0.316 µM
# [10] = second compound 0.1 µM, first compound 1 µM
# [11] = second compound 0.1 µM, first compound 3.16 µM
# [12] = second compound 0.1 µM, first compound 10 µM
# [13] = second compound 0.316 µM, first compound 0.0316 µM
# [14] = second compound 0.316 µM, first compound 0.1 µM
# [15] = second compound 0.316 µM, first compound 0.316 µM
# [16] = second compound 0.316 µM, first compound 1 µM
# [17] = second compound 0.316 µM, first compound 3.16 µM
# [18] = second compound 0.316 µM, first compound 10 µM
# [19] = second compound 1 µM, first compound 0.0316 µM
# [20] = second compound 1 µM, first compound 0.1 µM
# [21] = second compound 1 µM, first compound 0.316 µM
# [22] = second compound 1 µM, first compound 1 µM
# [23] = second compound 1 µM, first compound 3.16 µM
# [24] = second compound 1 µM, first compound 10 µM
# [25] = second compound 3.16 µM, first compound 0.0316 µM
# [26] = second compound 3.16 µM, first compound 0.1 µM
# [27] = second compound 3.16 µM, first compound 0.316 µM
# [28] = second compound 3.16 µM, first compound 1 µM
# [29] = second compound 3.16 µM, first compound 3.16 µM
# [30] = second compound 3.16 µM, first compound 10 µM
# [31] = second compound 10 µM, first compound 0.0316 µM
# [32] = second compound 10 µM, first compound 0.1 µM
# [33] = second compound 10 µM, first compound 0.316 µM
# [34] = second compound 10 µM, first compound 1 µM
# [35] = second compound 10 µM, first compound 3.16 µM
# [36] = second compound 10 µM, first compound 10 µM
# 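Also: spheroids exposed to agents for seven days before readout.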
# 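For viability, T/C in this document: percent of DMSO vehicle control wells so 100% = untreated growth.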
smiles,measurement,setting,value
CCCS(=O)(=O)Nc1ccc(F)c(C(=O)c2c[nH]c3ncc(-c4ccc(Cl)cc4)cc23)c1F + CNC(=O)c1ccc(Nc2nc(OC3CCCC3)c3c(-c4ccc5nc(C)oc5c4)c[nH]c3n2)c(OC)c1,IC50,second compound 0.0316 µM,> 10000 nM
same,IC50,second compound 0.1 µM,> 10000 nM
same,IC50,second compound 0.316 µM,> 10000 nM
same,IC50,second compound 1 µM,> 10000 nM
same,IC50,second compound 3.16 µM,< 31.6 nM
same,IC50,second compound 10 µM,< 31.6 nM
same,"viability, T/C",[1],106%
same,"viability, T/C",[2],113%
same,"viability, T/C",[3],116%
same,"viability, T/C",[4],127%
same,"viability, T/C",[5],127%
same,"viability, T/C",[6],106%
same,"viability, T/C",[7],94.3%
same,"viability, T/C",[8],88.2%
same,"viability, T/C",[9],97.5%
same,"viability, T/C",[10],98.3%
same,"viability, T/C",[11],90%
same,"viability, T/C",[12],79.9%
same,"viability, T/C",[13],72.5%
same,"viability, T/C",[14],74.8%
same,"viability, T/C",[15],78%
same,"viability, T/C",[16],78.8%
same,"viability, T/C",[17],88.8%
same,"viability, T/C",[18],72%
same,"viability, T/C",[19],47.8%
same,"viability, T/C",[20],59.6%
same,"viability, T/C",[21],64.8%
same,"viability, T/C",[22],71%
same,"viability, T/C",[23],60.9%
same,"viability, T/C",[24],60.2%
same,"viability, T/C",[25],47.6%
same,"viability, T/C",[26],54.7%
same,"viability, T/C",[27],53.6%
same,"viability, T/C",[28],49.2%
same,"viability, T/C",[29],61.5%
same,"viability, T/C",[30],59.2%
same,"viability, T/C",[31],42.5%
same,"viability, T/C",[32],50.6%
same,"viability, T/C",[33],47.8%
same,"viability, T/C",[34],58.8%
same,"viability, T/C",[35],67.2%
same,"viability, T/C",[36],61.4%
CC(Nc1ccc2c(c1)OCCn1cc(N3C(=O)OCC3C(F)F)nc1-2)C(N)=O (stereo not drawn) + CN1CCN(c2cc(C(=O)Nc3cc4cc(-c5cnn(C)c5)ccc4cn3)ccn2)CC1,IC50,second compound 0.0316 µM,7280 nM
same,IC50,second compound 0.1 µM,327 nM
same,IC50,second compound 0.316 µM,< 31.6 nM
same,IC50,second compound 1 µM,< 31.6 nM
same,IC50,second compound 3.16 µM,< 31.6 nM
same,IC50,second compound 10 µM,< 31.6 nM
same,"viability, T/C",[1],91.5%
same,"viability, T/C",[2],78.7%
same,"viability, T/C",[3],79%
same,"viability, T/C",[4],65.6%
same,"viability, T/C",[5],55.3%
same,"viability, T/C",[6],48%
same,"viability, T/C",[7],67.6%
same,"viability, T/C",[8],58.3%
same,"viability, T/C",[9],50%
same,"viability, T/C",[10],45.1%
same,"viability, T/C",[11],37.5%
same,"viability, T/C",[12],36.7%
same,"viability, T/C",[13],27.5%
same,"viability, T/C",[14],23.4%
same,"viability, T/C",[15],18%
same,"viability, T/C",[16],19.1%
same,"viability, T/C",[17],19.2%
same,"viability, T/C",[18],14.3%
same,"viability, T/C",[19],3.27%
same,"viability, T/C",[20],4.12%
same,"viability, T/C",[21],3.78%
same,"viability, T/C",[22],2.98%
same,"viability, T/C",[23],2.66%
same,"viability, T/C",[24],2.88%
same,"viability, T/C",[25],3.35%
same,"viability, T/C",[26],3.08%
same,"viability, T/C",[27],2.69%
same,"viability, T/C",[28],2.63%
same,"viability, T/C",[29],2.26%
same,"viability, T/C",[30],2.14%
same,"viability, T/C",[31],2.98%
same,"viability, T/C",[32],3.37%
same,"viability, T/C",[33],3.23%
same,"viability, T/C",[34],2.97%
same,"viability, T/C",[35],3.87%
same,"viability, T/C",[36],2.96%
C#Cc1c(F)ccc2cc(O)cc(-c3ncc4c(N5CC6CCC(C5)N6)nc(OCC56CCCN5CC(F)C6)nc4c3F)c12 (stereo not drawn) + CN1CCN(c2cc(C(=O)Nc3cc4cc(-c5cnn(C)c5)ccc4cn3)ccn2)CC1,IC50,second compound 0.0316 µM,> 10000 nM
same,IC50,second compound 0.1 µM,3050 nM
same,IC50,second compound 0.316 µM,< 31.6 nM
same,IC50,second compound 1 µM,< 31.6 nM
same,IC50,second compound 3.16 µM,< 31.6 nM
same,IC50,second compound 10 µM,< 31.6 nM
same,"viability, T/C",[1],101%
same,"viability, T/C",[2],101%
same,"viability, T/C",[3],101%
same,"viability, T/C",[4],95.8%
same,"viability, T/C",[5],67.1%
same,"viability, T/C",[6],50.9%
same,"viability, T/C",[7],68.8%
same,"viability, T/C",[8],73.2%
same,"viability, T/C",[9],71.1%
same,"viability, T/C",[10],63.3%
same,"viability, T/C",[11],49.9%
same,"viability, T/C",[12],42.6%
same,"viability, T/C",[13],28.4%
same,"viability, T/C",[14],25.6%
same,"viability, T/C",[15],24.8%
same,"viability, T/C",[16],22.9%
same,"viability, T/C",[17],17.8%
same,"viability, T/C",[18],15.1%
same,"viability, T/C",[19],3.55%
same,"viability, T/C",[20],3.52%
same,"viability, T/C",[21],3.35%
same,"viability, T/C",[22],3.07%
same,"viability, T/C",[23],2.52%
same,"viability, T/C",[24],2.87%
same,"viability, T/C",[25],3.72%
same,"viability, T/C",[26],4.19%
same,"viability, T/C",[27],3.39%
same,"viability, T/C",[28],3.07%
same,"viability, T/C",[29],3.51%
same,"viability, T/C",[30],5.09%
same,"viability, T/C",[31],4.24%
same,"viability, T/C",[32],4.08%
same,"viability, T/C",[33],5.09%
same,"viability, T/C",[34],3.16%
same,"viability, T/C",[35],3.48%
same,"viability, T/C",[36],3.19%
CC(Nc1ccc2c(c1)OCCn1cc(N3C(=O)OCC3C(F)F)nc1-2)C(N)=O (stereo not drawn) + CNC(=O)c1ccc(Nc2nc(OC3CCCC3)c3c(-c4ccc5nc(C)oc5c4)c[nH]c3n2)c(OC)c1,IC50,second compound 0.0316 µM,> 10000 nM
same,IC50,second compound 0.1 µM,> 10000 nM
same,IC50,second compound 0.316 µM,290 nM
same,IC50,second compound 1 µM,< 31.6 nM
same,IC50,second compound 3.16 µM,< 31.6 nM
same,IC50,second compound 10 µM,< 31.6 nM
same,"viability, T/C",[1],110%
same,"viability, T/C",[2],97.7%
same,"viability, T/C",[3],80.4%
same,"viability, T/C",[4],68.9%
same,"viability, T/C",[5],64%
same,"viability, T/C",[6],52%
same,"viability, T/C",[7],89.7%
same,"viability, T/C",[8],74.6%
same,"viability, T/C",[9],73.9%
same,"viability, T/C",[10],71.6%
same,"viability, T/C",[11],58.4%
same,"viability, T/C",[12],50.5%
same,"viability, T/C",[13],63.6%
same,"viability, T/C",[14],59.5%
same,"viability, T/C",[15],48.5%
same,"viability, T/C",[16],43.1%
same,"viability, T/C",[17],39.9%
same,"viability, T/C",[18],39.2%
same,"viability, T/C",[19],43.4%
same,"viability, T/C",[20],36.5%
same,"viability, T/C",[21],33%
same,"viability, T/C",[22],29.6%
same,"viability, T/C",[23],30.1%
same,"viability, T/C",[24],27.7%
same,"viability, T/C",[25],34.8%
same,"viability, T/C",[26],35.6%
same,"viability, T/C",[27],30.7%
same,"viability, T/C",[28],27.8%
same,"viability, T/C",[29],30.7%
same,"viability, T/C",[30],21.7%
same,"viability, T/C",[31],42%
same,"viability, T/C",[32],33.8%
same,"viability, T/C",[33],28%
same,"viability, T/C",[34],28.8%
same,"viability, T/C",[35],28%
same,"viability, T/C",[36],20.9%
